The assay addresses T1, Guanine deaminase (GDA) (Homo sapiens, UniProt Q9Y2T3).
T1 sequence (Q9Y2T3 1-454): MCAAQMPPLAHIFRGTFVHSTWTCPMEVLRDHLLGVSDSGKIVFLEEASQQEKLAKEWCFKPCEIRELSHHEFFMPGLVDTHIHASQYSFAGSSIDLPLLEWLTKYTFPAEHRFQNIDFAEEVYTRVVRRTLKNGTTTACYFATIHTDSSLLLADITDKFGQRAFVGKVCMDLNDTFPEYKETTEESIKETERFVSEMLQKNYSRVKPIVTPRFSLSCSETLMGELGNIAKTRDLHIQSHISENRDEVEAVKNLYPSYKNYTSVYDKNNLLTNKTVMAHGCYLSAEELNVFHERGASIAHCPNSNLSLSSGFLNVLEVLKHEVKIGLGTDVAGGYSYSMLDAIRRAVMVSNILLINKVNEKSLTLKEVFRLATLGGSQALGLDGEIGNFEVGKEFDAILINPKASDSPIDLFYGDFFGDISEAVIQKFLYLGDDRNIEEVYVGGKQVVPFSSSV
The assay is described as follows: real-time fluorescence inhibition assay with tzGN as substrate. The class given is biochemical.

In general, IC50 refers to the midpoint of a concentration-inhibition curve. Lower therefore signals higher potency. On to `NC(=O)c1nscc1N` [ATCA, 4-aminoisothiazole-3-carboxamide], for which the IC50 came out at 80 µM. To `O=C(O)c1c[nH]cn1` [ICA, 4-imidazolecarboxylic acid] belongs 2000 µM; to `NC(=O)c1[nH]cnc1N` [AICA, 5-aminoimidazole-4-carboxamide], 100 µM.

These data come from paper PMC9109600 (ACS chemical biology, 2021).
